Data published in patent publication US9994528B2, “Certain amino-pyridines and amino-triazines, compositions thereof, and methods for their use” (Cytokinetics, Inc., priority 2010, dated 2018).

Tested on: rabbit skeletal myofibrils (approximately 90% fast fibers)
Assay: Activation of fast skeletal myofibrils (PUMA coupled-enzyme ATPase assay)
Format: biochemical
Details: AC1.4 = concentration at which the compound increased the enzymatic activity by 40%; myofibril suspension at calcium level pCa25; PM12 buffer pH 6.8
Procedure: Preparation of fast skeletal myofibrils. Rabbit skeletal myofibrils were prepared based upon the method of Herrmann et al. (Biochem. 32(28):7255-7263(1993). Myofibrils were prepared from rabbit psoas muscle purchased from Pel-Freez Biologicals (Arkansas) within 2 days of ordering, stored on ice. Minced muscle was homogenized in 10 volumes of ice-cold “standard” buffer (50 mM Tris, pH 7.4, 0.1 M potassium acetate, 5 mM KCl, 2 mM DTT, 0.2 mM PMSF, 10 μM leupeptin, 5 μM pepstatin, and 0.5 mM sodium azide) containing 5 mM EDTA and 0.5% Triton X-100 using an Omni-Macro homogenizer. Myofibrils were recovered by low speed centrifugation (3000 rpm for 10 minutes) and washed 2 times in the Triton X-100 containing buffer to ensure removal of cellular membrane. Following the Triton washes, myofibrils were washed 3 times in “standard” buffer containing 2 mM magnesium acetate. A final wash in assay buffer (12 mM PIPES, pH 6.8, 60 mM KCl, 1 mM DTT) was performed and brought to 10% sucrose for flash freezing in liquid nitrogen and storage at −80° C.
Activation of Fast Skeletal Myofibrils. Fast fiber activators were identified by measuring the enzymatic activity of muscle myofibril preparations using the proprietary PUMA™ (see, e.g., U.S. Pat. Nos. 6,410,254, 6,743,599, 7,202,051, and 7,378,254) assay system. Myofibril preparations consisted of rabbit skeletal muscle (approximately 90% fast fibers) that had been mechanically homogenized and washed with a detergent (triton X-100) to remove cellular membranes. This preparation retained all of the sarcomeric components in a native conformation and the enzymatic activity was still regulated by calcium. Compounds were tested using a myofibril suspension and a level of calcium sufficient to increase enzymatic activity of the myofibrils to 25% of their maximal rate (termed pCa25). Enzymatic activity was tracked via a pyruvate kinase and lactate dehydrogenase-coupled enzyme system. This assay regenerates myosin-produced ADP into ATP by oxidizing NADH, producing an absorbance change at 340 nm. The buffering system was 12 mM Pipes, 2 mM MgCl2, 1 mM DTT at pH 6.8 (PM12 buffer).
Using procedures similar to those described herein, utilizing reagents and intermediates commercially available (e.g., Sigma-Aldrich,) or readily synthesized by one of skill in the art, the compounds in Table 2 were synthesized, characterized and tested. AC1.4 values were determined according to the procedure described in Example 25, and the reported median AC1.4 values are as follows: A=<1 uM; B=1-10 uM; C=10-20 uM; D=>20 uM.

| Mean AC1.4 | Compound |
| --- | --- |
| A (A=<1 uM) | NC(=O)c1cccc(-c2ncc(NCC3(c4ccc(F)cc4)CCC3)nn2)c1 [3-[6-({[(4-fluorophenyl)cyclobutyl]methyl}amino 1,2,4-triazin-3-yl]benzamide] |
| D (D=>20 uM) | CC(C)(Nc1ncc(-c2ccc(C(N)=O)cc2F)nn1)c1ncccc1F [3-fluoro-4-(3-{[1-(3-fluoro(2-pyridyl))-isopropyl]amino}(1,2,4-triazin-6-yl))benzamide] |
| A (A=<1 uM) | NC(=O)c1ccc(O)c(-c2cnc(NC[C@]3(c4ncccc4F)C[C@H](F)C3)nn2)c1 [3-[3-({[3-fluoro-1-(3-fluoro(2-pyridyl))cyclobulyl]methyl}amino)(1,2,4-triazin-6-yl)]-4-hydroxybenzamide] |
| A (A=<1 uM) | NC(=O)c1ccc(F)c(-c2cnc(NC[C@]3(c4ncccc4Cl)C[C@H](F)C3)nn2)c1 [3-[3-({[1-(3-chloro(2-pyridyl))-3-fluorocyclobutyl]methyl}amino)(1,2,4-triazin-6-yl)]-4-fluorobenzamide] |
| B (B=1-10 uM) | CC(C)(Nc1ncc(-c2cc(C(N)=O)ccc2F)nn1)c1cccc(C(F)F)n1 [3-[3-({1-[6-(difluoromethyl)(2-pyridyl)]-isopropyl}amino)(1,2,4-triazin-6-yl)]-4-fluorobenzamide] |
| B (B=1-10 uM) | Nc1n[nH]c2ccc(-c3cnc(NCC4(c5ncccc5F)CCC4)nn3)cc12 [[6-(3-amino(1H-indazol-5-yl))(1,2,4-triazin-3-yl)]{[(3-fluoro(2-pyridyl))cyclobutyl]methyl}amine] |
| C (C=10-20 uM) | 2-{2-[3-({[3-fluoro-1-(3-fluoro(2- pyridyl))cyclobutyl]methyl}amino)-1,2,4- triazin-6-yl]-1,3-thiazoI-5-yl}acetamide |
| B (B=1-10 uM) | N#Cc1cccc(-c2cnc(NC[C@]3(c4ncccc4Cl)C[C@H](F)C3)nn2)c1 [3-[3-({[1-(3-chloro(2-pyridyl))-3-fluorocyclobutyl]methyl}amino)-1,2,4-triazin-6-yl]benzenecarbonitrile] |
| B (B=1-10 uM) | C[C@H](CNc1ccc(-c2cccc(C(N)=O)c2)cn1)c1ccc(F)cc1 [3-(6-{[(2S)-2-(4-fluorophenyl)propyl]amino}-3-pyridyl)benzamide] |
| D (D=>20 uM) | CC(C)(CNc1cc(-c2ccc(F)cc2)ccn1)c1ccc(F)cc1 [[4-(4-fluorophenyl)(2-pyridyl)][2-(4-fluorophenyl)-2-methylpropyl]amine] |
| B (B=1-10 uM) | CC(C)(CNc1ncc(-c2cc(C(N)=O)ccc2F)nn1)c1ncccc1Cl [3-(3-{[2-(3-chloro(2-pyridyl))-2-methylpropyl]amino}(1,2,4-triazin-6-yl))-4-fluorobenzamide] |
| D (D=>20 uM) | COC(=O)c1ccc(F)c(-c2cnc(NCC(C)(C)c3ncccc3Cl)nn2)c1 [methyl 3-(3-{[2-(3-chloro(2-pyridyl))-2-methylpropyl]amino}(1,2,4-triazin-6-yl))-4-fluorobenzoate] |
| B (B=1-10 uM) | Cc1nc(C(C)(C)Nc2ncc(-c3cc(C(N)=O)ccc3F)nn2)ccc1F [4-fluoro-3-(3-{[1-(5-fluoro-6-methyl(2-pyridyl))-isopropyl]amino}(1,2,4-triazin-6-yl))benzamide] |
| B (B=1-10 uM) | CC(C)(CNc1ncc(-n2cc(C(N)=O)cn2)nn1)c1ccc(F)cc1 [1-(3-{[2-(4-fluorophenyl)-2-methylpropyl]amino}-1,2,4-triazin-6-yl)pyrazole-4-carboxamide] |
| D (D=>20 uM) | CC(C)(Nc1ncc(-n2cc(C(N)=O)cn2)nn1)c1ncccc1Cl [1-(3-{[1-(3-chloro(2-pyridyl))-isopropyl]amino}-1,2,4-triazin-6-yl)pyrazole-4-carboxamide] |
| B (B=1-10 uM) | CC(C)(Nc1ncc(-c2cc(NS(N)(=O)=O)ccc2F)nn1)c1ncccc1F [amino[4-fluoro-3-(3-{[1-(3-fluoro(2-pyridyl))-isopropyl]amino}(1,2,4-triazin-6-yl))phenyl]sulfonamide] |

| Mean AC1.4 | Compound |
| --- | --- |
| D (D=>20 uM) | c1ccc(-c2cccc(NC3(c4ccccc4)CCC3)n2)cc1 [(6-phenyl(2-pyridyl))(phenylcyclobutyl)amine] |
| D (D=>20 uM) | CC(C)(CNc1ccc(C(O)CO)cn1)c1ccc(F)cc1 (centres unmarked) [1-(6-{[2-(4-fluorophenyl)-2-methylpropyl]amino}-3-pyridyl)ethane-1,2-diol] |
| B (B=1-10 uM) | Fc1cccnc1C1(CNc2ncc(-c3ccc4[nH]ncc4c3)nn2)CCC1 [(6-(1H-indazol-5-yl)(1,2,4-triazin-3-yl)){[(3-fluoro(2-pyridyl))cyclobutyl]methyl}amine] |
| B (B=1-10 uM) | CC(C)(CNc1ncc(-c2cc(C(=O)O)ccc2F)nn1)c1ncccc1Cl [3-(3-{[2-(3-chloro(2-pyridyl))-2-methylpropyl]amino}(1,2,4-triazin-6-yl))-4-fluorobenzoic acid] |
| A (A=<1 uM) | CC(C)(Nc1ncc(-c2cc(C(N)=O)ccc2F)nn1)c1ccc(F)cc1 [4-fluoro-3-(3-{[1-(4-fluorophenyl)-isopropyl]amino}(1,2,4-triazin-6-yl))benzamide] |
| D (D=>20 uM) | CC(C)(Nc1ncc(-c2cc(C(N)=O)ccc2F)nn1)c1cccc(S(C)(=O)=O)c1 [4-fluoro-3-[3-({1-methyl-1-[3-(methylsulfonyl)phenyl]ethyl}amino)(1,2,4-triazin-6-yl)]benzamide] |
| B (B=1-10 uM) | CNC(=O)c1cccc(-c2cnc(NC[C@]3(c4ncccc4Cl)C[C@H](F)C3)nn2)c1 [{3-[3-({[1-(3-chloro(2-pyridyl))-3-fluorocyclobutyl]methyl}amino)(1,2,4-triazin-6-yl)]phenyl}-N-methylcarboxamide] |
| D (D=>20 uM) | CC(=O)NCCc1ccc(NCC(C)(C)c2ccc(F)cc2)nc1 [N-[2-(6-{[2-(4-fluorophenyl)-2-methylpropyl]amino}-3-pyridyl)ethyl]acetamide] |
| D (D=>20 uM) | CC(C)(CNc1cccc(-c2ccc(F)cc2)n1)c1ccc(F)cc1 [[6-(4-fluorophenyl)(2-pyridyl)][2-(4-fluorophenyl)-2-methylpropyl]amine] |
| B (B=1-10 uM) | CC(C)(Nc1ncc(-c2ccc3[nH][nH]c(=O)c3c2)nn1)c1ncccc1F [5-(3-{[1-(3-fluoro(2-pyridyl))-isopropyl]amino}-1,2,4-triazin-6-yl)-1H-2-hydroindazol-3-one] |
| C (C=10-20 uM) | NC(=O)Cc1cnc(-c2cnc(NCC3(c4ncccc4F)CCC3)nn2)s1 [2-{2-[3-({[(3-fluoro-2-pyridyl)cyclobutyl]methyl}amino)-1,2,4-triazin-6-yl]-1,3-thiazol-5-yl}acetamide] |
| B (B=1-10 uM) | Cc1ccc(F)c(C(C)(C)Nc2ncc(-c3cc(C(N)=O)ccc3F)nn2)n1 [4-fluoro-3-(3-{[1-(3-fluoro-6-methyl(2-pyridyl))-isopropyl]amino}(1,2,4-triazin-6-yl))benzamide] |
| B (B=1-10 uM) | NC(=O)c1ccc(F)c(-c2cnc(NC3(c4ncccc4F)CCC3)nn2)c1 [4-fluoro-3-(3-{[(3-fluoro(2-pyridyl))cyclobutyl]amino}(1,2,4-triazin-6-yl))benzamide] |
| B (B=1-10 uM) | CNC(=O)c1ccc(F)c(-c2cnc(NCC3(c4ncccc4F)CCC3)nn2)c1 [{4-fluoro-3-[3-({[(3-fluoro(2-pyridyl))cyclobutyl]methyl}amino)(1,2,4-triazin-6-yl)]phenyl}-N-methylcarboxamide] |
| A (A=<1 uM) | NC(=O)c1ccc(F)c(-c2cnc(NC3(c4cccc(OC(F)F)n4)CCC3)nn2)c1 [3-[3-({[6-(difluoromethoxy)(2-pyridyl)]cyclobulyl}amino)(1,2,4-triazin-6-yl)]-4-fluorobenzamide] |
| C (C=10-20 uM) | CC(C)(Nc1ncc(-c2cc(NS(C)(=O)=O)ccc2F)nn1)c1ncccc1F [[4-fluoro-3-(3-{[1-(3-fluoro(2-pyridyl))-isopropyl]amino}(1,2,4-triazin-6-yl))phenyl](methylsulfonyl)amine] |
